From ChEMBL document CHEMBL5550185, “Targeting hTERT Promoter G-Quadruplex DNA Structures with Small-Molecule Ligand to Downregulate hTERT Expression for Triple-Negative Breast Cancer Therapy” (J Med Chem, 2024)
The source made the active and inactive calls. No cut-off for these calls is given here.

Experiments:
MDA-MB-231 [1] = assay: Induction of mitochondrial dysfunction in human MDA-MB-231 cells assessed as mitochondrial membrane potential impairment at 0 to 1.5 uM incubated for 48 hrs by Hoechst33342 staining based microscopic analysis; type: functional, cell-based; details: dose 0-1.5 µM
MDA-MB-231 [2] = assay: Cytotoxicity against human MDA-MB-231 cells transfected with hTERT-pcDNA3.1(+)-C-eBFP overexpressing hTERT assessed as inhibition of cell growth measured after 48 hrs by MTT assay; type: functional, cell-based; details: MDA-MB-231, 48 h
MDA-MB-231 [3] = assay: Antitumor activity against human MDA-MB-231 cells xenografted in female Balb/c mouse assessed as reduction in tumor weight at 2 mg/kg, iv administered via tail vein every 2 days for 16 days relative to control; type: functional; design: scale not given: the % may be the effect or the level left; details: time 16 day
MDA-MB-231 [4] = assay: Induction of ferroptosis in human MDA-MB-231 cells assessed as disruption of iron metabolism by measuring increase in bright yellow fluorescent spots measured after 48 hrs by FerroOrange/Hoechst 33342 staining based confocal microscopic analysis; type: functional, cell-based; details: dose 0-1.5 µM
MDA-MB-231 [5] = assay: Cytotoxicity against human MDA-MB-231 cells without hTERT overexpression assessed as inhibition of cell growth measured after 48 hrs by MTT assay; type: functional, cell-based; details: MDA-MB-231, 48 h
[6] = Upregulation of FTL gene expression in human MDA-MB-231 cells assessed as fold change at 1 uM measured after 48 hrs by RNA-seq analysis relative to control; type: functional
MDA-MB-231 [7] = assay: Activation of apoptosis in human MDA-MB-231 cells assessed as downregulation of Bcl-2 protein expression measured after 48 hrs by Western blot analysis; type: functional, cell-based; details: dose 0-1.5 µM
[8] = Toxicity in female Balb/c nude mouse xenografted with human MDA-MB-231 cells assessed as pathological changes in heart at 2 to 5 mg/kg, iv administered via tail vein every 2 days for 16 days by H and E staining based analysis; type: organism-based; details: in vivo, 384 h, dose 2-5 mg/kg, time 16 day
Quadruplex DNA [9] = assay: Binding affinity to hTERT G4 DNA assessed as change in gibbs free energy at 400 uM by ITC analysis; type: nucleic-acid assay; details: Homo sapiens
MDA-MB-231 [10] = assay: Induction of telomere dysfunction in human MDA-MB-231 cells assessed as cellular senescence at 0.2 uM measured after 10 days by SA-beta-gal staining based analysis; type: functional, cell-based; details: time 10.0 day
[11] = Upregulation of ZFP36L1 gene expression in human MDA-MB-231 cells assessed as fold change at 1 uM measured after 48 hrs by RNA-seq analysis relative to control; type: functional
[12] = Toxicity in female Balb/c nude mouse xenografted with human MDA-MB-231 cells assessed as change in creatinine level at 2 to 5 mg/kg, iv administered via tail vein every 2 days for 16 days; type: organism-based; details: in vivo, 384 h, dose 2-5 mg/kg, time 16 day
[13] = Upregulation of SKP2 gene expression in human MDA-MB-231 cells assessed as fold change at 1 uM measured after 48 hrs by RNA-seq analysis relative to control; type: functional
[14] = Toxicity in female Balb/c nude mouse xenografted with human MDA-MB-231 cells assessed as change in lymphocyte count at 2 to 5 mg/kg, iv administered via tail vein every 2 days for 16 days; type: organism-based; details: in vivo, 384 h, dose 2-5 mg/kg, time 16 day
[15] = Upregulation of HLA-C gene expression in human MDA-MB-231 cells assessed as fold change at 1 uM measured after 48 hrs by RNA-seq analysis relative to control; type: functional
[16] = Upregulation of RRAS gene expression in human MDA-MB-231 cells assessed as fold change at 1 uM measured after 48 hrs by RNA-seq analysis relative to control; type: functional
Quadruplex DNA [17] = assay: Binding affinity to c-MYC Pu27 G4 DNA (unknown origin) assessed as change in enthalpy at 400 uM by ITC analysis; type: nucleic-acid assay
MDA-MB-231 [18] = assay: Inhibition of hTERT expression in human MDA-MB-231 cells assessed as reduction in pink foci in nucleus at 0.5 uM incubated for 48 hrs in presence of TBHP at 200 uM by immunofluorescence analysis; type: functional, cell-based
[19] = Upregulation of EGF gene expression in human MDA-MB-231 cells assessed as fold change at 1 uM measured after 48 hrs by RNA-seq analysis relative to control; type: functional
[20] = Binding affinity to antisense i-hTERT DNA assessed as dissociation constant by ITC analysis; design: species or system Homo sapiens
dsDNA = assay: Binding affinity to 4a4t duplex DNA (unknown origin) assessed as thermal stability by measuring change in melting temperature at 400 uM […]; type: nucleic-acid assay
MDA-MB-231 [21] = assay: Inhibition of cell migration in human MDA-MB-231 cells at 0 to 1.5 uM measured after 48 hrs by crystal violet staining based microscopic analysis; type: functional; details: dose 0-1.5 µM
[22] = Selectivity ratio of binding affinity to human TERT G4 DNA to binding affinity to Ds26 duplex DNA (unknown origin)
MDA-MB-231 [23] = assay: Downregulation of hTERT mRNA expression in human MDA-MB-231 cells measured after 48 hrs by qRT-PCR analysis; type: functional, cell-based; details: dose 0-1.5 µM
PC-3 = assay: Cytotoxicity against telomerase-positive human PC-3 cells assessed as inhibition of cell growth incubated for 48 hrs by MTT assay; type: functional, cell-based; details: PC-3, 48 h
MDA-MB-231 [24] = assay: Disruption of energy metabolism in human MDA-MB-231 cells assessed as increase in ECAR at 0 to 1.5 uM measured after 2 hrs by Seahorse XF24 analyzer; type: functional, cell-based; details: dose 0-1.5 µM
[25] = Upregulation of CCNB2 gene expression in human MDA-MB-231 cells assessed as fold change at 1 uM measured after 48 hrs by RNA-seq analysis relative to control; type: functional
[26] = Toxicity in female Balb/c nude mouse xenografted with human MDA-MB-231 cells assessed as change in granulocyte count at 2 to 5 mg/kg, iv administered via tail vein every 2 days for 16 days; type: organism-based; details: in vivo, 384 h, dose 2-5 mg/kg, time 16 day
MDA-MB-231 [27] = assay: Induction of senescence in human MDA-MB-231 cells at 0 to 1.5 uM measured after 48 hrs by SA-beta-gal assay; type: functional, cell-based; details: dose 0-1.5 µM
[28] = Upregulation of SAT2 gene expression in human MDA-MB-231 cells assessed as fold change at 1 uM measured after 48 hrs by RNA-seq analysis relative to control; type: functional
Homo sapiens [29] = organism: Homo sapiens; assay: Binding affinity to antisense i-hTERT DNA assessed as change in enthalpy at 400 uM by ITC analysis
[30] = Selectivity ratio of binding affinity to human TERT G4 DNA to binding affinity to VEGF G4 DNA (unknown origin)
Quadruplex DNA [31] = assay: Binding affinity to CKIT-2 G4 DNA (unknown origin) assessed as dissociation constant by ITC analysis; type: nucleic-acid assay
Homo sapiens [32] = organism: Homo sapiens; assay: Binding affinity to antisense i-hTERT DNA assessed as thermal stability by measuring change in melting temperature at 400 uM […]
[33] = Upregulation of HMOX1 gene expression in human MDA-MB-231 cells assessed as fold change at 1 uM measured after 48 hrs by RNA-seq analysis relative to control; type: functional
MDA-MB-231 [34] = assay: Induction of cell cycle arrest in human MDA-MB-231 cells assessed as accumulation of cells at G2/M phase at 0.5 to 1.5 uM measured after 48 hrs by 7-aminoactinomycin D/RNase staining based flow cytometry analysis (reference value: 14.3%); type: functional; details: dose 0.5-1.5 µM

C[n+]1c(/C=C/c2c[nH]c3ccccc23)cc(/C=C2\Sc3ccccc3N2CCCN2CCC(C(F)(F)F)CC2)c2ccccc21.[I-]
Activity (MDA-MB-231 [1]): Active | IC50 (MDA-MB-231 [2]): 3.3 µM | Activity (MDA-MB-231 [3]): 48.7% | Activity (MDA-MB-231 [4]): Dose-Dependent Effect | IC50 (MDA-MB-231 [5]): 1200 nM | fold change (FC) [6]: >2 | Activity (MDA-MB-231 [7]): Dose-Dependent Effect | Activity [8]: Non-Toxic | deltaG (Quadruplex DNA [9]): -8.11 kcal/mol | Activity (MDA-MB-231 [10]): Active | fold change (FC) [11]: >2 | Activity [12]: Non-Toxic | fold change (FC) [13]: >2 | Activity [14]: Non-Toxic | fold change (FC) [15]: >2 | fold change (FC) [16]: >2 | deltaH (Quadruplex DNA [17]): -2.44 kcal/mol | inhibition (MDA-MB-231 [18]): Active | fold change (FC) [19]: >2 | Kd [20]: 2790 nM | ΔTm (dsDNA): 1.65 °C | inhibition (MDA-MB-231 [21]): Active | Selectivity ratio [22]: 3 | Activity (MDA-MB-231 [23]): Dose-Dependent Effect | IC50 (PC-3): 2500 nM | Activity (MDA-MB-231 [24]): Active | fold change (FC) [25]: >2 | Activity [26]: Non-Toxic | Activity (MDA-MB-231 [27]): Active | fold change (FC) [28]: >2 | deltaH (Homo sapiens [29]): -1.2 kcal/mol | Selectivity ratio [30]: 2 | Kd (Quadruplex DNA [31]): 6.8 µM | ΔTm (Homo sapiens [32]): 8.82 °C | fold change (FC) [33]: >2 | Activity (MDA-MB-231 [34]): 32%
